Measurements from paper PMC6753678, “Fueling Open Innovation for Malaria Transmission-Blocking Drugs: Hundreds of Molecules Targeting Early Parasite Mosquito Stages” (Frontiers in Microbiology, 2019).
Like-named read-outs stand apart in the source and are kept apart here.

Experiments:
[1] = test system: P. falciparum female gametocytes; assay: P. falciparum female gametogenesis assay (Pf FGAA); settings: 1: YES, 0: NO
[2] = test system: HepG2 cells; settings: ref Miguel-Blanco et al 2017, cited from earlier work; for HepG2 cytoxicity (Pf FGAA screen): HepG2 value reported with Pf FGAA screen
[3] = test system: P. falciparum female gametocytes; set-up: method as in Miguel-Blanco et al 2017; settings: ref Miguel-Blanco et al 2017, read-out: Pf FGAA IC50, cited from earlier work
[4] = test system: HepG2 cells; assay: HepG2 cytotoxicity assay; settings: unified HepG2 cytotoxicity across the three screens
Method in brief: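 Here viability after a 48 h compound incubation (37°C, humidified 5% CO2) is measured by fluorescence and expressed as percent inhibition, with doxorubicin at 50 μM and DMSO as the bounding controls.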

[5] = >10-fold selectivity over cytotox

Compound	Is compound selective in assay? Pf FGAA active? [1]	HepG2 cytoxicity (Pf FGAA screen) [2] [µM]	IC50 ([3]; TCAMS library screen) [nM]	Is compound selective in assay? Pf FGAA active? [1, 5]	HepG2 cytoxicity ([2]; HepG2 value reported with the Pf FGAA screen) [µM]	IC50 [3] [nM]	Unified cytotox [4] [µM]
COc1c(CNCCCCCCNCc2cc(Cl)c3ccccc3c2OC)cc(Cl)c2ccccc12.CS(=O)(=O)O [TCMDC-137958]	0 (0: NO)	4.62	1180				
Clc1nc(Cl)c2c(ccn2Cc2ccccc2)n1 [TCMDC-137801]	1 (1: YES)	>100	1460				
Cc1ccc(C)c2sc(N3CCN(C(=O)c4ccc([N+](=O)[O-])o4)CC3)nc12 [TCMDC-124315]	1 (1: YES)	37.65	1120				
CN1CCN(Cc2ccc(-c3cc4c(Nc5ccc(OCc6cccc(F)c6)c(Cl)c5)ncnc4s3)[nH]2)CC1 [TCMDC-135458]	0 (0: NO)	10.98	2410				
c1ccc(CNc2cc(-c3ccccn3)nc(-c3ccccn3)n2)cc1 [TCMDC-125421]	1 (1: YES)	13.04	320				
COc1ccccc1-c1nc2c(ccc3nc(N)nc(N)c32)[nH]1 [TCMDC-137976]	0 (0: NO)	2.87	1130				
CN(/N=C/C=C/c1ccc(Cl)cc1)c1nc(NCCc2ccc(O)cc2)nc(N2CCNCC2)n1 [TCMDC-138546]	0 (0: NO)	13.18	1960				
FC(F)(F)c1ccc2[nH]c(-c3ccc(-c4ccc(CNCCN5CCNCC5)cc4)cc3)nc2c1.O=C(O)C(F)(F)F [TCMDC-132865]	1 (1: YES)	16.43	1410				
Cl.Clc1cc(Br)ccc1-c1ccc(CNCC2CCNCC2)o1 [TCMDC-124617]	0 (0: NO)	4.37	720				
COc1cc(OC)cc(C(=O)Nc2nc(-c3ccccn3)cs2)c1 [TCMDC-125345]	1 (1: YES)	39.82	360				
O=C(Nc1nc(-c2ccccn2)cs1)c1ccc(Br)s1 [TCMDC-123868]	1 (1: YES)	37.44	1160				
CNCCCNCc1ccc(-c2ccc(F)c(Cl)c2)o1.Cl [TCMDC-125237]	0 (0: NO)	10.60	1870				
CCOc1cc2ccccc2cc1CNCCCCCCNCc1cc2ccccc2cc1OCC.CS(=O)(=O)O [TCMDC-137940]	0 (0: NO)	6.06	1290				
Cc1c2ccncc2c(C)c2c1[nH]c1cc(Cc3ccccc3)c(O)cc12 [TCMDC-132053]	0 (0: NO)	1.23	1090				
NCc1ccc(CNCc2ccc(-c3ccc(-c4nc5cc(C(F)(F)F)ccc5[nH]4)s3)cc2)cc1.O=C(O)C(F)(F)F [TCMDC-132814]	0 (0: NO)	8.32	1020				
Cc1cccc2nc(-c3ccc(-c4ccc(CNCCN5CCNCC5)cc4)s3)[nH]c12.O=C(O)C(F)(F)F [TCMDC-132870]	0 (0: NO)	14.29	1530				
CCn1c(-c2nonc2N)nc2c(-c3cccc(NC(=O)Nc4ccc(Cl)cc4)c3)ncc(OCCCN)c21.O=C(O)C(F)(F)F [TCMDC-136152]	0 (0: NO)	10.96	1700				
CN(C)Cc1cccc2nc(-c3csc(Cc4cc(Cl)ccc4OCc4ccccc4)n3)[nH]c12 [TCMDC-132174]	0 (0: NO)	13.04	2100				
COc1ccc(NC(=O)Nc2ccc(Nc3nc(C)cc(N4CCCC4)n3)cc2)cc1 [TCMDC-124958]	1 (1: YES)	11.89	1080				
CCCCOc1c(CNCCCCCCNCc2ccc3ccccc3c2OCCCC)ccc2ccccc12.CS(=O)(=O)O [TCMDC-137975]	0 (0: NO)	2.21	1490				
CCOc1ccc(-n2nc3c(Cl)nnc(-c4ccccc4)c3c2-c2ccccc2)cc1 [TCMDC-123899]	1 (1: YES)	>100	940				
CC(Nc1cc(-c2ccccn2)nc(-c2ccccn2)n1)c1ccccc1 (stereo not drawn) [TCMDC-125420]	1 (1: YES)	6.18	210				

Compound	Is compound selective in assay? Pf FGAA active? [1]	HepG2 cytoxicity (Pf FGAA screen) [2] [µM]	IC50 ([3]; TCAMS library screen) [nM]	Is compound selective in assay? Pf FGAA active? [1, 5]	HepG2 cytoxicity ([2]; HepG2 value reported with the Pf FGAA screen) [µM]	IC50 [3] [nM]	Unified cytotox [4] [µM]
O=C(NCC1CCN(Cc2cccc(C(F)(F)F)c2)C1)c1cc(-c2cccc(F)c2)cs1.O=C(O)C(F)(F)F (stereo not drawn) [TCMDC-134484]	0 (0: NO)	18.87	2260				
CCc1c(CCNC/C=C/C=C/CNCCc2ccc(OC)c(OC)c2CC)ccc(OC)c1OC.Cl [TCMDC-132061]	0 (0: NO)	4.68	2560				
CN1CCC(NCc2cccc(-c3ccc(S(=O)(=O)NCc4ccccc4)c(F)c3)c2)CC1.O=C(O)C(F)(F)F [TCMDC-132219]	0 (0: NO)	5.13	2630				
O=c1c(NCCCN(Cc2ccc(F)cc2)c2ccccn2)c(NCc2cccnc2)c1=O [TCMDC-142311]				1 (1: YES)	>100	360	
O=S(=O)(Nc1cccc(F)c1CNCc1ccccn1)c1ccc(Cl)c(Cl)c1 [TCMDC-132598]	1 (1: YES)	20.42	1360				
C[C@H](Cc1ccc(OCCCCCCOc2ccc(C[C@@H](C)N[C@H](C)c3ccccc3)cc2)cc1)NC[C@H](O)c1cccc(Cl)c1.Cl [TCMDC-131564]	0 (0: NO)	4.28	720				
COc1ccc2ccccc2c1CCCCN1CCN(CC(c2ccc(F)cc2)N2CCC2)CC1.O=C(O)C(F)(F)F (stereo not drawn) [TCMDC-135867]	0 (0: NO)	4.37	5860				
Cc1cc(I)ccc1Nc1nc2nonc2nc1Nc1ccc(I)cc1C [TCMDC-124083]	0 (0: NO)	0.93	1080				
ON=C(c1nc2ccccc2[nH]1)c1nc2ccccc2[nH]1 [TCMDC-125758]	1 (1: YES)	4.96	330				
COc1cc2nc(N3CCC(CNC(=O)c4ccc(-c5ccc(-c6noc(C)n6)cc5C)cc4)CC3)nc(N)c2cc1OC [TCMDC-138155]	0 (0: NO)	7.62	1680				
CCc1c(CCNCCCCCNCCc2ccc(OC)c(OC)c2CC)ccc(OC)c1OC.Cl [TCMDC-132064]	0 (0: NO)	4.68	2050				
CC(C)C1=CC(=NOS(=O)(=O)c2ccccc2)C=C(C(C)C)C1=O [TCMDC-124172]	1 (1: YES)	21.70	880				
Cl.Clc1ccc(CNCCCCCCCNCc2ccc(Cl)c(Cl)c2)cc1Cl [TCMDC-138075]	0 (0: NO)	4.57	700				
COc1c(CNCCCCCCNCc2c(OC)c(OC)c3ccccc3c2OC)c(OC)c2ccccc2c1OC.CS(=O)(=O)O [TCMDC-137837]	0 (0: NO)	4.42	3690				
CC(C)(C)c1cc(NC2CC2)nc(-c2ccccn2)n1 [TCMDC-125826]	1 (1: YES)	>100	120				
c1ccc(-c2nc(NC3CCCCC3)cc(C3CC3)n2)nc1 [TCMDC-125825]	1 (1: YES)	48.99	160				
Br.CC(C)(Cc1ccc(Cl)cc1)NCCCCCCNCCc1ccc(O)c(O)c1 [TCMDC-131277]	0 (0: NO)	10.97	9660				
CCc1c(CCNCCCCCCNCCc2ccc3c(c2C)OCO3)ccc2c1OCO2.Cl [TCMDC-132093]	0 (0: NO)	3.89	1020				
CN1CCN(Cc2ccc(OCc3cccc(COc4ccc(CN5CCN(C)CC5)cc4I)c3)c(I)c2)CC1.Cl [TCMDC-137239]	0 (0: NO)	5.01	1850				
O=C(Nc1cc(Cl)c(Cl)cc1NC(=O)c1cccc(-c2ccccc2)c1O)c1cccc(-c2ccccc2)c1O [TCMDC-139548]				0 (0: NO)		1090	3.09
CC(=O)Nc1ccc2[nH]cc(C3CCN(CC4CCC(NC(=O)/C=C/c5ccc(Cl)c(Cl)c5)CC4)CC3)c2n1 (stereo not drawn) [TCMDC-140114]				0 (0: NO)		1740	13.49
